Data on two compounds can be found in patent US20230270855A1, “Genetically Modified T-Cells and PI3K/AKT Inhibitors For Cancer Treatment” (The Research Foundation for The State of University New York, priority 2018, published 2023).

In assay [1] the target is Akt2W80A (Homo sapiens, UniProt P31751, W80A). The following applies: previous studies; cited from earlier work.
The target of assay [2] is Akt1W80A (Homo sapiens, UniProt P31749, W80A). The following applies: previous studies; cited from earlier work.
The test system of assay [3] is WT KPC pancreatic tumors. Put plainly: Adoptive transfer of PI3K mutant-expressing T-cells plus BYL719 in tumor-bearing mice. The format is in vivo. The following applies: WT mice implanted with WT KPC cells. As to the method: To test the anti-tumor efficacy of CTLKPC clones that express one or more PI3K p110α mutants, one or more PI3K p110δ mutants or combinations of PI3K p110α and p110δ mutants, respectively, in vivo, WT mice are implanted with 0.5 million WT KPC cells in the pancreas. After 2 weeks, the pancreatic tumors are well established and are quantified by IVIS imaging. […] Changes in tumor size are monitored by IVIS imaging and survival curves are constructed. Post-mortem examination is performed as described above for analyzing the pancreas. Tumor regression is observed only in the groups that receive adoptive transfer of PI3K mutant-expressing T-cells, plus concurrent treatment with the appropriate PI3K inhibitor.

Chain of Akt2W80A (P31751 whole entry W80A): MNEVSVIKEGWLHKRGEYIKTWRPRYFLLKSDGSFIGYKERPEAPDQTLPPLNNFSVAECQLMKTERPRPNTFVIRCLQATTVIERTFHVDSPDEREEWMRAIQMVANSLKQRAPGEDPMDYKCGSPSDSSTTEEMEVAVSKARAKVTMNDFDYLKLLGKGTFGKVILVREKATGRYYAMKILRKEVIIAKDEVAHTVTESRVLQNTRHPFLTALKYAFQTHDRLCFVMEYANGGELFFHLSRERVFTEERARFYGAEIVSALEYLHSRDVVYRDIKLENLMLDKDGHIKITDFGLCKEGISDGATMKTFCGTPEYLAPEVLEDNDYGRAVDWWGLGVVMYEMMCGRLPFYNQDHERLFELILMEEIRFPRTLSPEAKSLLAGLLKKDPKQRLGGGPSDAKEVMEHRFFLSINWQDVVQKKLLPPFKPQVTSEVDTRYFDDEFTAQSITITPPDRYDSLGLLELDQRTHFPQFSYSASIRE
Chain of Akt1W80A (P31749 whole entry W80A): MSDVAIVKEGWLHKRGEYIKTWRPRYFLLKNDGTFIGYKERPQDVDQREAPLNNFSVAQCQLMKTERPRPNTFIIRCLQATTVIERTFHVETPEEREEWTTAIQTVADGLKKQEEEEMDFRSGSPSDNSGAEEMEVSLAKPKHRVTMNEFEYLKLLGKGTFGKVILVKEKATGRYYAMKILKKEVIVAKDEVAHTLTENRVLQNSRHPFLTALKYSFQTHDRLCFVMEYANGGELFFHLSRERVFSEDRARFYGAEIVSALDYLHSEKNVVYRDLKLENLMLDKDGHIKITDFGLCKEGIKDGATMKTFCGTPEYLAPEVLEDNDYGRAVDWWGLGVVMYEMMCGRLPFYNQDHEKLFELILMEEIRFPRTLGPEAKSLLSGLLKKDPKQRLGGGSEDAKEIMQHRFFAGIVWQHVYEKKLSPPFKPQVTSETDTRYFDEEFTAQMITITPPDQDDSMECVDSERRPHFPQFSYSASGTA

Take `NC1(c2ccc(-c3nc4ccn5c(=O)[nH]nc5c4cc3-c3ccccc3)cc2)CCC1` [MK2206]: in assay [1], the “inhibition of Akt2W80A mutant” value is reported as “completely resistant”. Besides, in assay [2], the “inhibition of Akt1W80A mutant” value is reported as “completely resistant”.

For the compound `Cc1nc(NC(=O)N2CCC[C@H]2C(N)=O)sc1-c1ccnc(C(C)(C)C(F)(F)F)c1` [BYL719], the survival result in assay [3] was “all die from pancreatic tumor progression”.
